Columns and labels:
[1] = tested on: patients with chronic heart failure (HF); assay: Clinical trial of rosuvastatin vs placebo in chronic heart failure, analysed by baseline galectin-3 category; assay type: in vivo, human
From the text: A clinical trial enrolled patients with chronic heart failure (HF) (New York Heart Association functional class II, III or IV) and with left ventricular ejection fraction less than or equal to 40% (less than or equal to 35% for patients in New York Heart Association functional class II). The design and primary results of the trial are reported in published literature [J. Kjekshus et al., “Rosuvastatin in Older Patients with Systolic Heart Failure.” N Engl J. Med. 2007 Nov. 29; 357(22):2248-61]. Patients were randomly assigned to receive 10 milligrams of rosuvastatin or placebo per day. Of the patients in the trial, a subset of 1,462 subjects also participated in a sub-study in which blood was collected at baseline, defined as the time of enrollment in the trial. Baseline galectin-3 levels were evaluated in these […] subjects.
Blood plasma samples were drawn at baseline from participants in a non-fasting state. All samples were stored at −80° C. Plasma galectin-3 levels were determined on these plasma specimens using a commercial enzyme-linked immunosorbent assay (BGM Galectin-3 Assay; BG Medicine, Waltham, Mass.) according to the manufacturer's instructions.
Determination of galectin-3 concentration in serum samples was assessed using ELISA kits (BGM Galectin-3 Assay; BG Medicine Inc., Waltham, Mass., USA). The assay sensitivity (lowest concentration different from zero) was 0.96 ng/mL. Intra- and inter-assay variations were less than 8% and 10% respectively.
For the main objective of investigating the effects of rosuvastatin treatment according to baseline galectin-3 level, galectin-3 categories were defined based on the median baseline value across all 1,462 subjects for whom a galectin-3 measurement was available. For each of six endpoints, a formal interaction test was conducted within a Cox proportional hazards model comprising treatment group (binary variable), galectin-3 category (dichotomous variable), and the interaction term. Subsequently, Cox proportional hazards models were used to estimate the hazard ratios (HRs) and 95% confidence intervals (CIs) comparing rosuvastatin and placebo treatments by galectin-3 categories. Fully adjusted models included the following 11 covariates, all evaluated at baseline: age (per year), gender, LVEF (per unit), NYHA class (due to the small number of subjects with class IV, class III and IV were combined), body mass index (BMI) (per unit), diabetes mellitus (yes/no), intermittent claudication (yes/no), heart rate (per unit), estimated glomerular filtration rate (eGFR) (per unit), the ratio of apolipoprotein B to apolipoprotein A1, and N-terminal B-type natriuretic peptide (NT-proBNP) (the variable NT-proBNP was logarithmically transformed using base e). Incident event rates were analyzed using Poisson regression. Baseline characteristics were compared by galectin-3 category using Student's t-test for variables expressed as means and standard deviation. All P-values are two two-tailed. All analyses were performed with SAS software, version 9.1 (SAS Institute), or R software, version 2.

heart failure patients = conditions: unselected heart failure patients; CORONA and GISSI-HF trials; cited from earlier work

CC(C)c1nc(N(C)S(C)(=O)=O)nc(-c2ccc(F)cc2)c1/C=C/[C@@H](O)C[C@@H](O)CC(=O)O [Rosuvastatin, rosuvastatin]
Rate of subjects experiencing the primary outcome, Rosuvastatin rate ([1]; Galectin-3 > 19.0 ng/mL, 728 subjects): 15.1 per 100 person-years of follow-up
Rate of subjects experiencing the primary outcome, Rosuvastatin rate ([1]; Galectin-3 ≦ 19.0 ng/mL, 734 subjects): 7.8 per 100 person-years of follow-up
hazard ratio (HR) for the primary endpoint, rosuvastatin compared to placebo ([1]; baseline galectin-3 >19.0 ng/mL (N=728), 10 mg rosuvastatin per day, adjusted HR): 1.07
rate of primary events ([1]; baseline galectin-3 >19.0 ng/mL, rosuvastatin group, 10 mg per day): 15.1 events per 100 patient-years
hazard ratio (HR) for the primary endpoint (earlier of cardiovascular death, non-fatal myocardial infarction or non-fatal stroke), rosuvastatin compared to placebo ([1]; baseline galectin-3 less than or equal to 19.0 ng/mL (N=734), 10 mg rosuvastatin per day, adjusted for 11 clinical and biochemical covariates): 0.65
difference in rate of primary events, rosuvastatin compared to placebo ([1]; baseline galectin-3 less than or equal to 19.0 ng/mL, 7.8 vs 11.2 events per 100 patient-years): 30.4%
rate of primary events ([1]; baseline galectin-3 less than or equal to 19.0 ng/mL, subjects randomized to rosuvastatin 10 mg per day): 7.8 events per 100 patient-years
clinical benefit of statin therapy in heart failure patients (heart failure patients): did not demonstrate a significant clinical benefit

Reference: US20120029003A1, “GALECTIN-3 AND STATIN THERAPY” (BG Medicine, Inc., priority 2010, published 2012)
